# pIC50: −log10 of the molar value.
# Target: T1, human vasopressin V1a receptor subtype (Homo sapiens, UniProt P37288)
# T1 construct: host or cells: CHO cells (pZeoSV vector for the Thibonnier line)
# Assay: Vasopressin binding in Chinese Hamster Ovary cell membranes expressing human vasopressin V1a subtype receptors
# Settings: CHO cell membranes, [3H]Manning ligand; for pIC50: values in parentheses; for inhibition at 0.1 µM: 100 nM, values without parentheses
# Outline: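 Displacement of [3H]Manning ligand (8 nM working solution) from human V1a receptors in CHO cell membranes, 25–50 μg protein per well. Incubation ran 60 min at room temperature in 50 mM Tris-HCl pH 7.4 with protease inhibitors, followed by filtration and scintillation counting. Results are given as IC50 or percent inhibition.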
# T1 sequence (P37288 whole entry): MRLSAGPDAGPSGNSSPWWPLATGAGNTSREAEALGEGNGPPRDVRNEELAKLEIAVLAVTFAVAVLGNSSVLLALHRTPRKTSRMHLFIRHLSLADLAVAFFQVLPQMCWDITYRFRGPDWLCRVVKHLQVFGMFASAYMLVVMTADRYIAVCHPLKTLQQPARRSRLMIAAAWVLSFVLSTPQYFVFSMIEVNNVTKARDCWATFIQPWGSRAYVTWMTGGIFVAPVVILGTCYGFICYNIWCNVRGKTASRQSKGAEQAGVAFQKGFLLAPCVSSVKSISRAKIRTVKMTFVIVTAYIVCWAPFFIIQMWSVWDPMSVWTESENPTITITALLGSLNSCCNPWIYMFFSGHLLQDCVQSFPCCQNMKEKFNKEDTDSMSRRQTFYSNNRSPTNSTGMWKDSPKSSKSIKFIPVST
pIC50,inhibition at 0.1 µM [%],SMILES
,22,"COc1cc(C(=O)N2Cc3ccc(C(=O)N(C)CCCN(C)C)n3Cc3ccccc32)ccc1-c1cccc2ccccc12 [Example 106, N-[3-(Dimethylamino)propyl]-10-[3-methoxy-4-(1-naphthyl)benzoyl]-N-methyl-10,11-dihydro-5H-pyrrolo[2,1-c][1,4]benzodiazepine-3-carboxamide]"
6.43,,"COc1ccccc1-c1ccc(C(=O)N2Cc3ccc(C(=O)N4CCN(CCCN(C)C)CC4)n3Cc3ccccc32)cc1 [Example 246, {4-[3-(Dimethylamino)propyl]-1-piperazinyl}{10-[(2′-methoxy[1,1′-biphenyl]-4-yl)carbonyl]-10,11-dihydro-5H-pyrrolo[2,1-c][1,4]benzodiazepin-3-yl}methanone]"
6.03,,"COc1ccccc1-c1ccc(C(=O)N2Cc3ccc(C(=O)N4CCN(CCCN(C)C)CC4)n3Cc3ccccc32)cc1C [Example 245, {4-[3-(Dimethylamino)propyl]-1-piperazinyl}{10-[(2′-methoxy-2-methyl[1,1′-biphenyl]-4-yl)carbonyl]-10,11-dihydro-5H-pyrrolo[2,1-c][1,4]benzodiazepin-3-yl}methanone]"
6.28,,"COc1cc(-c2ccccc2C)c(Cl)cc1C(=O)N1Cc2ccc(C(=O)N3CCN(CCN(C)C)CC3)n2Cc2ccccc21 [Example 197, {10-[(6-Chloro-3-methoxy-2′-methyl[1,1′-biphenyl]-4-yl)carbonyl]-10,11-dihydro-5H-pyrrolo[2,1-c][1,4]benzodiazepin-3-yl}{4-[2-(dimethylamino)ethyl]-1-piperazinyl}methanone]"
,27,"COc1ccccc1-c1ccc(C(=O)N2Cc3ccc(C(=O)N(C)CCCN(C)C)n3Cc3ccccc32)cc1C [Example 100, N-[3-(Dimethylamino)propyl]-10-[(2′-methoxy-2-methyl[1,1′-biphenyl]-4-yl)carbonyl]-N-methyl-10,11-dihydro-5H-pyrrolo[2,1-c][1,4]benzodiazepine-3-carboxamide]"
,75,"Cc1ccccc1-c1ccc(C(=O)N2Cc3ccc(C(=O)N(C)CCCN(C)C)n3Cc3ccccc32)cc1C [Example 101, N-[3-(Dimethylamino)propyl]-10-[(2,2′-dimethyl[1,1′-biphenyl]-4-yl)carbonyl]-N-methyl-10,11-dihydro-5H-pyrrolo[2,1-c][1,4]benzodiazepine-3-carboxamide]"
6.52,,"COc1cccc(-c2ccc(C(=O)N3Cc4ccc(C(=O)N5CC[C@@H](N(C)C)C5)n4Cc4ccccc43)cc2C)c1 [Example 278, [(3R)-3-(Dimethylamino)pyrrolidinyl]{10-[(3′-methoxy-2-methyl[1,1′-biphenyl]-4-yl)carbonyl]-10,11-dihydro-5H-pyrrolo[2,1-c][1,4]benzodiazepin-3-yl}methanone]"
6.01,,"Cc1cc(C(=O)N2Cc3ccc(C(=O)N4CC[C@@H](N(C)C)C4)n3Cc3ccccc32)ccc1-c1ccccc1C(F)(F)F [Example 271, [(3R)-3-(Dimethylamino)pyrrolidinyl](10-{[2-methyl-2′-(trifluoromethyl)[1,1′-biphenyl]-4-yl]carbonyl}-10,11-dihydro-5H-pyrrolo[2,1-c][1,4]benzodiazepin-3-yl)methanone]"
,45,"COc1cccc(-c2ccc(C(=O)N3Cc4ccc(C(=O)N(C)CCCN(C)C)n4Cc4ccccc43)cc2C)c1 [Example 102, N-[3-(Dimethylamino)propyl]-10-[(3′-methoxy-2-methyl[1,1′-biphenyl]-4-yl)carbonyl]-N-methyl-10,11-dihydro-5H-pyrrolo[2,1-c][1,4]benzodiazepine-3-carboxamide]"

# Continued, molecule first:
SMILES,pIC50,inhibition at 0.1 µM [%]
"COc1cc(-c2ccccc2F)c(Cl)cc1C(=O)N1Cc2cccn2Cc2ccccc21 [Example 18B, 10-{[6-Chloro-3-methoxy-2′-fluoro-[1,1′-biphenyl]-4-yl]carbonyl}-10,11-dihydro-5H-pyrrolo[2,1-c][1,4]benzodiazepine]",6.41,
"COc1cc(-c2ccccc2C)c(Cl)cc1C(=O)N1Cc2ccc(C(=O)N(C)CCN(C)C)n2Cc2ccccc21 [Example 86, 10-[(6-Chloro-3-methoxy-2′-methyl[1,1′-biphenyl]-4-yl)carbonyl]-N-[2-(dimethylamino)ethyl]-N-methyl-10,11-dihydro-5H-pyrrolo[2,1-c][1,4]benzodiazepine-3-carboxamide]",6.76,
"COc1cc(C(=O)N2Cc3ccc(C(=O)N(C)CCN(C)C)n3Cc3ccccc32)ccc1-c1ccccc1C [Example 92, N-[2-(Dimethylamino)ethyl]-10-[(2-methoxy-2′-methyl[1,1′-biphenyl]-4-yl)carbonyl]-N-methyl-10,11-dihydro-5H-pyrrolo[2,1-c][1,4]benzodiazepine-3-carboxamide]",,78
"COc1cc(-c2ccccc2C(F)(F)F)c(OC)cc1C(=O)N1Cc2cccn2Cc2ccccc21 [Example 32, 10-{[3,6-Dimethoxy-2′-trifluoromethyl-[1,1′-biphenyl]-4-yl]carbonyl}-10,11-dihydro-5H-pyrrolo[2,1-c][1,4]benzodiazepine]",< 5.52,
"Cc1cc(C(=O)N2Cc3ccc(C(=O)N(C)CCN(C)C)n3Cc3ccccc32)ccc1-c1ccccc1C(F)(F)F [Example 85, N-[2-(Dimethylamino)ethyl]-N-methyl-10-{[2-methyl-2′-(trifluoromethyl)[1,1′-biphenyl]-4-yl]carbonyl}-10,11-dihydro-5H-pyrrolo[2,1-c][1,4]benzodiazepine-3-carboxamide]",6.10,
"COc1cccc(-c2ccc(C(=O)N3Cc4ccc(C(=O)N(C)CCN(C)C)n4Cc4ccccc43)cc2OC)c1 [Example 95, 10-[(2,3′-Dimethoxy[1,1′-biphenyl]-4-yl)carbonyl]-N-[2-(dimethylamino)ethyl]-N-methyl-10,11-dihydro-5H-pyrrolo[2,1-c][1,4]benzodiazepine-3-carboxamide]",,68
"COc1cc(C(=O)N2Cc3ccc(C(=O)N(C)CCN(C)C)n3Cc3ccccc32)ccc1-c1cccc2ccccc12 [Example 93, N-[2-(Dimethylamino)ethyl]-10-[3-methoxy-4-(1-naphthyl)benzoyl]-N-methyl-10,11-dihydro-5H-pyrrolo[2,1-c][1,4]benzodiazepine-3-carboxamide]",,29
"COc1cc(-c2ccccc2C)c(Cl)cc1C(=O)N1Cc2ccc(C(=O)N(C)CCCN(C)C)n2Cc2ccccc21 [Example 98, 10-[(6-Chloro-3-methoxy-2′-methyl[1,1′-biphenyl]-4-yl)carbonyl]-N-[3-(dimethylamino)propyl]-N-methyl-10,11-dihydro-5H-pyrrolo[2,1-c][1,4]benzodiazepine-3-carboxamide]",6.62,
"CN(C)CCN(C)C(=O)c1ccc2n1Cc1ccccc1N(C(=O)c1ccc(-c3cccc4ccccc34)cc1Cl)C2 [Example 96, 10-[2-Chloro-4-(1-naphthyl)benzoyl]-N-[2-(dimethylamino)ethyl]-N-methyl-10,11-dihydro-5H-pyrrolo[2,1-c][1,4]benzodiazepine-3-carboxamide]",,10
"CN(C)CCCNC(=O)c1ccc2n1Cc1ccccc1N(C(=O)c1ccc(-c3cccc4ccccc34)cc1Cl)C2 [Example 83, 10-[2-Chloro-4-(1-naphthyl)benzoyl]-N-[3-(dimethylamino)propyl]-10,11-dihydro-5H-pyrrolo[2,1-c][1,4]benzodiazepine-3-carboxamide]",,8
"COc1ccccc1-c1ccc(C(=O)N2Cc3ccc(C(=O)NCCCN(C)C)n3Cc3ccccc32)cc1OC [Example 81, 10-[(2,2′-Dimethoxy[1,1′-biphenyl]-4-yl)carbonyl]-N-[3-(dimethylamino)propyl]-10,11-dihydro-5H-pyrrolo[2,1-c][1,4]benzodiazepine-3-carboxamide]",,4
"COc1cc(C(=O)N2Cc3ccc(C(=O)NCCCN(C)C)n3Cc3ccccc32)ccc1-c1cccc2ccccc12 [Example 80, N-[3-(Dimethylamino)propyl]-10-[3-methoxy-4-(1-naphthyl)benzoyl]-10,11-dihydro-5H-pyrrolo[2,1-c][1,4]benzodiazepine-3-carboxamide]",,16
"COc1cccc(-c2ccc(C(=O)N3Cc4ccc(C(=O)N(C)CCN(C)C)n4Cc4ccccc43)cc2C)c1 [Example 89, N-[2-(Dimethylamino)ethyl]-10-[(3′-methoxy-2-methyl[1,1′-biphenyl]-4-yl)carbonyl]-N-methyl-10,11-dihydro-5H-pyrrolo[2,1-c][1,4]benzodiazepine-3-carboxamide]",,50
"COc1ccccc1-c1ccc(C(=O)N2Cc3ccc(C(=O)N4CCCN(C)CC4)n3Cc3ccccc32)cc1 [Example 61, {10-[(2′-Methoxy[1,1′-biphenyl]-4-yl)carbonyl]-10,11-dihydro-5H-pyrrolo[2,1-c][1,4]benzodiazepin-3-yl}(4-methyl-1,4-diazepan-1-yl)methanone]",6.50,
"Cc1cc(C(=O)N2Cc3ccc(C(=O)N(C)CCCN(C)C)n3Cc3ccccc32)ccc1-c1ccccc1C(F)(F)F [Example 97, N-[3-(Dimethylamino)propyl]-N-methyl-10-{[2-methyl-2′-(trifluoromethyl)[1,1′-biphenyl]-4-yl]carbonyl}-10,11-dihydro-5H-pyrrolo[2,1-c][1,4]benzodiazepine-3-carboxamide]",5.96,
"COc1cccc(-c2ccc(C(=O)N3Cc4ccc(C(=O)NCCCN(C)C)n4Cc4ccccc43)cc2OC)c1 [Example 82, 10-[(2,3′-Dimethoxy[1,1′-biphenyl]-4-yl)carbonyl]-N-[3-(dimethylamino)propyl]-10,11-dihydro-5H-pyrrolo[2,1-c][1,4]benzodiazepine-3-carboxamide]",,37
"COc1cccc(-c2cc(OC)c(C(=O)N3Cc4ccc(C(=O)N(C)CCN(C)C)n4Cc4ccccc43)cc2Cl)c1 [Example 87, 10-[(6-Chloro-3,3′-dimethoxy[1,1′-biphenyl]-4-yl)carbonyl]-N-[2-(dimethylamino)ethyl]-N-methyl-10,11-dihydro-5H-pyrrolo[2,1-c][1,4]benzodiazepine-3-carboxamide]",6.46,

# From US7109193B2, “Tricyclic diazepines tocolytic oxytocin receptor antagonists” (Wyeth, priority 2001, dated 2006)
